IC50 data for 27 compounds are collected here from patent publication US11149018B2, “Substituted N-arylethyl-2-aminoquinoline-4-carboxamides and use thereof” (Bayer Aktiengesellschaft, priority 2017, dated 2021).

The target of this assay is FP receptor (Homo sapiens (Human), UniProt P43088). Briefly: In vitro test of inhibition of human FP receptor activity (PGF2α-induced calcium flux in FP-expressing CHEM1 cells). The assay is classed as cell-based. The note with it: PGF2α 2 nM, some mean values of multiple determinations. How it is done:
B-1. In Vitro Test of Inhibition of Human FP Receptor Activity
For the characterization of test substances in respect of FP antagonism, PGF2α-induced calcium flux in FP-expressing CHEM1 cells (Millipore, HTS093C) was used.
10 μl of the prediluted substance solution are added to the Fluo-8-laden cells and incubated at 37° C., 5% CO2 for 10 minutes. The FP receptor is activated by adding 40 μl of 2 nM (final concentration) PGF2α in calcium-free Tyrode, 2 mM CaCl2, 0.002% SmartBlock, and the calcium flux is determined by measuring the fluorescence at ex. 470 nm/[…].
Table 1 below lists the IC50 values from this assay for individual working examples of the invention (some as mean values from multiple independent individual determinations): […]
Background: Calcium flux is commonly read through the fluorescence of an indicator in the cells.

FP receptor, sequence (P43088 whole entry): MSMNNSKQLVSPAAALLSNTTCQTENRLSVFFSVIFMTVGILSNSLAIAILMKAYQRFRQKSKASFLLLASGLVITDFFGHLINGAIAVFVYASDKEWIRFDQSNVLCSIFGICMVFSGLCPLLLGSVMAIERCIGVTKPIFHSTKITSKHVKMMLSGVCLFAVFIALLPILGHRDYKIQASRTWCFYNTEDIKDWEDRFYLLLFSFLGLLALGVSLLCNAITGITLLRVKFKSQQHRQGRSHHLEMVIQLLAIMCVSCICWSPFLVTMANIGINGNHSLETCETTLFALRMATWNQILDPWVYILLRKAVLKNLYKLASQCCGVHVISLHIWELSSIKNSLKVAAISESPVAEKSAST

As usually defined, the IC50 is the point on the concentration scale where inhibition reaches its midpoint. `Cc1c(N2CCCCC2)nc2ccc(Br)cc2c1C(=O)NCC(CC(=O)O)c1c(F)cccc1Cl` (racemic) [Example 1, (+/−)-4-({[6-Bromo-3-methyl-2-(piperidin-1-yl)quinolin-4-yl]carbonyl}amino)-3-(2-chloro-6-fluorophenyl)butanoic acid]: the half-maximal inhibitory concentration (IC50) came out at 26 nM. The result for `Cc1c(NCCc2ccccc2)nc2ccc(Br)cc2c1C(=O)NCC(CC(=O)O)c1c(F)cccc1Cl` (racemic) [Example 4, (+/−)-4-[({6-Bromo-3-methyl-2-[(2-phenylethyl)amino]quinolin-4-yl}carbonyl)amino]-3-(2-chloro-6-fluorophenyl)butanoic acid] reads 170 nM; that for `Cc1c(N2CCCCC2)nc2ccc(Br)cc2c1C(=O)NCC(CCC(=O)O)c1cc(F)ccc1Cl` (racemic) [Example 5, (+/−)-5-({[6-Bromo-3-methyl-2-(piperidin-1-yl)quinolin-4-yl]carbonyl}amino)-4-(2-chloro-5-fluorophenyl)pentanoic acid], 9.4 nM; that for `Cc1c(N2CCC(F)(F)CC2)nc2ccc(Br)cc2c1C(=O)NCC(CCC(=O)O)c1cc(F)ccc1Cl` (racemic) [Example 8, (+/−)-5-({[6-Bromo-2-(4,4-difluoropiperidin-1-yl)-3-methylquinolin-4-yl]carbonyl}amino)-4-(2-chloro-5-fluorophenyl)pentanoic acid], 58 nM. As for `Cc1c(N2CCOCC2)nc2ccc(Br)cc2c1C(=O)NCC(CCC(=O)O)c1cc(F)ccc1Cl` (racemic) [Example 9, (+/−)-5-({[6-Bromo-3-methyl-2-(morpholin-4-yl)quinolin-4-yl]carbonyl}amino)-4-(2-chloro-5-fluorophenyl)pentanoic acid], the IC50 came to 290 nM. With `Cc1c(N2CC=CCC2)nc2ccc(Br)cc2c1C(=O)NCC(CCC(=O)O)c1cc(F)ccc1Cl` (racemic) [Example 10, (+/−)-5-({[6-Bromo-2-(3,6-dihydropyridin-1(2H)-yl)-3-methylquinolin-4-yl]carbonyl}amino)-4-(2-chloro-5-fluorophenyl)pentanoic acid], the IC50 is 36 nM. Then `Cc1c(N2CCSCC2)nc2ccc(Br)cc2c1C(=O)NCC(CCC(=O)O)c1cc(F)ccc1Cl` (racemic) [Example 11, (+/−)-5-({[6-Bromo-3-methyl-2-(thiomorpholin-4-yl)quinolin-4-yl]carbonyl}amino)-4-(2-chloro-5-fluorophenyl)pentanoic acid], with 25 nM; and `Cc1c(N2C[C@@H](C)O[C@@H](C)C2)nc2ccc(Br)cc2c1C(=O)NCC(CCC(=O)O)c1cc(F)ccc1Cl` (mixture of isomers) [Example 12, (+/−)-5-[({6-Bromo-2-[cis-2,6-dimethylmorpholin-4-yl]-3-methylquinolin-4-yl}carbonyl)amino]-4-(2-chloro-5-fluorophenyl)pentanoic acid], with 220 nM; and `Cc1c(N2CCCC2)nc2ccc(Br)cc2c1C(=O)NCC(CCC(=O)O)c1cc(F)ccc1Cl` (racemic) [Example 13, (+/−)-5-({[6-Bromo-3-methyl-2-(pyrrolidin-1-yl)quinolin-4-yl]carbonyl}amino)-4-(2-chloro-5-fluorophenyl)pentanoic acid], with 18 nM. Then `Cc1c(N2CCCO2)nc2ccc(Br)cc2c1C(=O)NCC(CCC(=O)O)c1cc(F)ccc1Cl` (racemic) [Example 14, (+/−)-5-({[6-Bromo-3-methyl-2-(1,2-oxazolidin-2-yl)quinolin-4-yl]carbonyl}amino)-4-(2-chloro-5-fluorophenyl)pentanoic acid], with 70 nM; and `Cc1c(N2CC=CC2)nc2ccc(Br)cc2c1C(=O)NCC(CCC(=O)O)c1cc(F)ccc1Cl` (racemic) [Example 15, (+/−)-5-({[6-Bromo-2-(2,5-dihydro-1H-pyrrol-1-yl)-3-methylquinolin-4-yl]carbonyl}amino)-4-(2-chloro-5-fluorophenyl)pentanoic acid], with 48 nM. Regarding `Cc1c(N2CCC(C)CC2)nc2ccc(Br)cc2c1C(=O)NCC(CCC(=O)O)c1cc(F)ccc1Cl` (racemic) [Example 18, (+/−)-5-({[6-Bromo-3-methyl-2-(4-methylpiperidin-1-yl)quinolin-4-yl]carbonyl}amino)-4-(2-chloro-5-fluorophenyl)pentanoic acid], the concentration for half-maximal inhibition (IC50) stood at 80 nM.

As to `Cc1c(N2CCSCC2)nc2ccc(Br)cc2c1C(=O)NCC(CCC(=O)O)c1ccccc1Cl` (racemic) [Example 25, (+/−)-5-({[6-Bromo-3-methyl-2-(thiomorpholin-4-yl)quinolin-4-yl]carbonyl}amino)-4-(2-chlorophenyl)pentanoic acid], the IC50 came to 22 nM. `Cc1c(N2CCC(F)(F)CC2)nc2ccc(Br)cc2c1C(=O)NCC(CCC(=O)O)c1ccccc1Cl` (racemic) [Example 28, (+/−)-5-({[6-Bromo-2-(4,4-difluoropiperidin-1-yl)-3-methylquinolin-4-yl]carbonyl}amino)-4-(2-chlorophenyl)pentanoic acid]: the IC50 turned out to be 31 nM. `Cc1c(N2CC=CCC2)nc2ccc(Br)cc2c1C(=O)NCC(CCC(=O)O)c1ccccc1Cl` (racemic) [Example 29, (+/−)-5-({[6-Bromo-2-(3,6-dihydropyridin-1(2H)-yl)-3-methylquinolin-4-yl]carbonyl}amino)-4-(2-chlorophenyl)pentanoic acid]: the concentration for half-maximal inhibition (IC50) turned out to be 22 nM. The result for `Cc1c(N2CCCCO2)nc2ccc(Br)cc2c1C(=O)NCC(CCC(=O)O)c1ccccc1Cl` (racemic) [Example 32, (+/−)-5-({[6-Bromo-3-methyl-2-(1,2-oxazinan-2-yl)quinolin-4-yl]carbonyl}amino)-4-(2-chlorophenyl)pentanoic acid] reads 48 nM; that for `Cc1c(N2CCC(F)(F)C2)nc2ccc(Br)cc2c1C(=O)NCC(CCC(=O)O)c1ccccc1Cl` (racemic) [Example 37, (+/−)-5-({[6-Bromo-2-(3,3-difluoropyrrolidin-1-yl)-3-methylquinolin-4-yl]carbonyl}amino)-4-(2-chlorophenyl)pentanoic acid], 22 nM; that for `Cc1c(N2CCCO2)nc2ccc(Br)cc2c1C(=O)NCC(CCC(=O)O)c1ccccc1Cl` (racemic) [Example 38, (+/−)-5-({[6-Bromo-3-methyl-2-(1,2-oxazolidin-2-yl)quinolin-4-yl]carbonyl}amino)-4-(2-chlorophenyl)pentanoic acid], 110 nM. For `Cc1c(N2CCCC(C)(C)C2)nc2ccc(Br)cc2c1C(=O)NCC(CCC(=O)O)c1ccccc1Cl` (racemic) [Example 42, (+/−)-5-({[6-Bromo-2-(3,3-dimethylpiperidin-1-yl)-3-methylquinolin-4-yl]carbonyl}amino)-4-(2-chlorophenyl)pentanoic acid], the concentration for half-maximal inhibition (IC50) is 130 nM.

As to `Cc1c(N2CCCC(F)(F)C2)nc2ccc(Br)cc2c1C(=O)NCC(CCC(=O)O)c1ccccc1Cl` (racemic) [Example 50, (+/−)-5-({[6-Bromo-2-(3,3-difluoropiperidin-1-yl)-3-methylquinolin-4-yl]carbonyl}amino)-4-(2-chlorophenyl)pentanoic acid], the IC50 was found to be 3 nM.

On to `Cc1c(N2CCN(C)CC2)nc2ccc(Br)cc2c1C(=O)NCC(CCC(=O)O)c1ccccc1Cl` (racemic) [Example 54, (+/−)-5-({[6-Bromo-3-methyl-2-(4-methylpiperazin-1-yl)quinolin-4-yl]carbonyl}amino)-4-(2-chlorophenyl)pentanoic acid], for which the IC50 was 850 nM.

Turning to `CCC1CCCN(c2nc3ccc(Br)cc3c(C(=O)NCC(CCC(=O)O)c3ccccc3Cl)c2C)C1` (racemic) [Example 57, (+/−)-5-[({6-Bromo-2-[3-ethylpiperidin-1-yl]-3-methylquinolin-4-yl}carbonyl)amino]-4-(2-chlorophenyl)pentanoic acid], the 50% inhibitory concentration (IC50) came out at 0.84 nM. Consider `Cc1c(N2C[C@@H](F)[C@@H](F)C2)nc2ccc(Br)cc2c1C(=O)NCC(CCC(=O)O)c1ccccc1Cl` (mixture of isomers) [Example 70, (+/−)-5-[({6-Bromo-2-[cis-3,4-difluoropyrrolidin-1-yl]-3-methylquinolin-4-yl}carbonyl)amino]-4-(2-chlorophenyl)pentanoic acid], for which the half-inhibitory concentration (IC50) was 16 nM. Then `Cc1c(N2CC(F)(F)C(F)(F)C2)nc2ccc(Br)cc2c1C(=O)NCC(CCC(=O)O)c1ccccc1Cl` (racemic) [Example 72, (+/−)-5-({[6-Bromo-3-methyl-2-(3,3,4,4-tetrafluoropyrrolidin-1-yl)quinolin-4-yl]carbonyl}amino)-4-(2-chlorophenyl)pentanoic acid], with 80 nM; and `Cc1c(N2CC3CC(C3)C2)nc2ccc(Br)cc2c1C(=O)NCC(CCC(=O)O)c1ccccc1Cl` (racemic) [Example 73, (+/−)-5-[({2-[3-Azabicyclo[3.1.1]hept-3-yl]-6-bromo-3-methylquinolin-4-yl}carbonyl)amino]-4-(2-chlorophenyl)pentanoic acid], with 48 nM; and `Cc1c(N2CC3CCC(C3)C2)nc2ccc(Br)cc2c1C(=O)NCC(CCC(=O)O)c1ccccc1Cl` (racemic) [Example 74, (+/−)-5-[({2-[3-Azabicyclo[3.2.1]oct-3-yl]-6-bromo-3-methylquinolin-4-yl}carbonyl)amino]-4-(2-chlorophenyl)pentanoic acid], with 170 nM. With `Cc1c(N2CC(F)(F)C2)nc2ccc(Br)cc2c1C(=O)NCC(CCC(=O)O)c1ccccc1Cl` (racemic) [Example 75, (+/−)-5-({[6-Bromo-2-(3,3-difluoroazetidin-1-yl)-3-methylquinolin-4-yl]carbonyl}amino)-4-(2-chlorophenyl)pentanoic acid], the IC50 stood at 120 nM.
